This test concerns the target human STAT6 (Homo sapiens (Human), UniProt P42226). The experiment in a line: Surface plasmon resonance assay (Biacore 8K, binding to immobilized STAT6). The settings on record: human STAT6 aa122-658, N-terminal His-tag, CM5 chip, 25° C.; geometric mean; read-out: STAT6 SPR Kd. How it is done:
Biacore instruments from the 8K-series (Cytiva) were used, and measurements were performed at 25° C. Human STAT6 (truncated, aa122-658, with N-terminal His-tag, expressed in insect cells) was immobilized in the active flow cells on a CM5 chip using amine-coupling (default settings) at 10 μg/ml in 10 mM acetate buffer pH 5.5, at a contact time of 120-420 sec. and a flow rate of 10 μl/min. Reference flow cells were deactivated using blank immobilization. PBS-P+ (Cytiva) supplemented with 2% DMSO was used as running buffer, and solvent correction was applied. Compounds were tested by multi-cycle kinetics injections using a contact time of 60 sec., dissociation time of up to 300 sec., and a flow rate of 30 μl/min.
Solvent-corrected, reference-subtracted and blank-corrected data was processed and binding isotherms were fitted according to a single report point from each sensorgram (Standard: Late binding (5 sec. before injection end); alternative: Earlier report point according to binding profile). Data fitting was done both with unfixed Rmax and with Rmax fixed to the theoretical value* assuming 1:1 binding to allow processing of data from both weak and strong binders as well as to evaluate binding stoichiometry.
Positive controls were run at the beginning, during, and at the end of the screen to evaluate surface activity.
human STAT6, sequence (P42226 122-658): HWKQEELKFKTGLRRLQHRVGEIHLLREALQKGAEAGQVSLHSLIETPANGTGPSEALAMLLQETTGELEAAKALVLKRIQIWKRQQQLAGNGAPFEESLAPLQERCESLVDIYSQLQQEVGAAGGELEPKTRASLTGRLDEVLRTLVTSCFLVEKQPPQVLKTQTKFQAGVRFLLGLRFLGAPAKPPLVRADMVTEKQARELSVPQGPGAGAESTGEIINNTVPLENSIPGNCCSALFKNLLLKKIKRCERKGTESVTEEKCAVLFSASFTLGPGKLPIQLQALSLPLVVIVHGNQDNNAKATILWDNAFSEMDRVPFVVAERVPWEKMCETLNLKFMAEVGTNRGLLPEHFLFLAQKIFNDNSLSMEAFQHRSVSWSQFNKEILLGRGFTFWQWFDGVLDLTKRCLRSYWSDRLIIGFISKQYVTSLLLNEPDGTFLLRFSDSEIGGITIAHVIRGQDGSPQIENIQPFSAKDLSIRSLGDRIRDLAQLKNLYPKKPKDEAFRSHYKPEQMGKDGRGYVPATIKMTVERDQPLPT
For “4-(1-((4-(6-Amino-5-methoxypyridin-3-yl)-1-methyl-1H-pyrrolo[2,3-b]pyridin-2-yl)methyl)piperidin-4-yl)-N,N-dimethylbenzamide [Example 1k7]”, the Kd was determined as 835 nM. To `CC(=O)Nc1ccc(-c2ccnc3c2cc(CN2CC[C@H](c4ccc(C(=O)N(C)C)cc4)[C@@H](C)C2=O)n3C)cc1` (single isomer, unassigned) [1aa2′] belongs 116 nM; to `CC(=O)Nc1ccc(-c2ccnc3c2cc(CN2CC[C@@H](c4ccc(C(=O)N(C)C)cc4)[C@H](C)C2=O)n3C)cc1` (single isomer, unassigned) [Example 1aa2], 203 nM; to `CN(C)C(=O)c1ccc(C2CCN(Cc3cc4c(-c5ccc(N)nc5)ccnc4n3C)C(=O)C2)cc1` (single isomer, unassigned) [Example 1ae5], 46.4 nM. Next, `CNc1ccc(-c2ccnc3c2cc([C@H](C)N2CCC(c4ccc(C(=O)N(C)C)cc4)CC2)n3C)cn1` (single isomer, unassigned) [Example 1af7]: 222 nM; `C[C@H]1C[C@H](c2ccc(C(=O)N(C)C)cc2)CCN1Cc1cc2c(-c3ccc(N)nc3C#N)ccnc2n1C` (single isomer, unassigned) [Example 1q2]: 2560 nM; `C[C@@H]1C[C@@H](c2ccc(C(=O)N(C)C)cc2)CCN1Cc1cc2c(-c3ccc(N)nc3C#N)ccnc2n1C` (single isomer, unassigned) [Example 1q3]: 4240 nM. To `C[C@@H]1C[C@@H](c2ccc(C(=O)N(C)C)cc2)CCN1Cc1cc2c(-c3ccc(N)cn3)ccnc2n1C` (single isomer, unassigned) [Example 1q7] belongs 5350 nM. On to `CNc1ccc(-c2ccnc3c2cc(CN2CC[C@H](c4ccc(C(=O)N(C)C)cc4)[C@@H](F)C2)n3C)cn1` (single isomer, unassigned) [Example 1s24], for which the Kd came out at 36.7 nM. As for `CNc1ccc(-c2ccnc3c2cc(CN2CC[C@@H](c4ccc(C(=O)N(C)C)cc4)[C@H](F)C2)n3C)cn1` (single isomer, unassigned) [Example 1s25], the Kd came out at 35.3 nM. Next, `[2H]C([2H])([2H])N(C(=O)c1ccc(C2=CCN(C(C)c3cc4c(-c5ccc(N)nc5C#N)ccnc4n3C)CC2)cc1)C([2H])([2H])[2H]` (stereo in doubt) [Example 1af22, (R)-4-(1-(1-(4-(6-Amino-2-cyanopyridin-3-yl)-1-methyl-1H-pyrrolo[2,3-b]pyridin-2-yl)ethyl)-1,2,3,6-tetrahydropyridin-4-yl)-N,N-bis(methyl-d3)benzamide]: 6600 nM. To `[2H]C([2H])([2H])N(C(=O)c1ccc(C2=CCN(C(C)c3cc4c(-c5ccc(N)nc5C#N)ccnc4n3C)CC2)cc1)C([2H])([2H])[2H]` (stereo in doubt) [Example 1af24, (S)-4-(1-(1-(4-(6-amino-2-cyanopyridin-3-yl)-1-methyl-1H-pyrrolo[2,3-b]pyridin-2-yl)ethyl)-1,2,3,6-tetrahydropyridin-4-yl)-N,N-bis(methyl-d3)benzamide] belongs 51.3 nM; to `CNc1ccc(-c2ccnc3c2cc(CN2CC[C@H](c4ccc(C(=O)N(C)C)cc4)[C@@H](F)C2)n3C)nc1` (stereo in doubt) [Example 1o18, 4-((3R,4R)-3-fluoro-1-((1-methyl-4-(5-(methylamino)pyridin-2-yl)-1H-pyrrolo[2,3-b]pyridin-2-yl)methyl)piperidin-4-yl)-N,N-dimethylbenzamide], 139 nM; to `C[C@H]1C[C@H](c2ccc(C(=O)N(C)C)cc2)CCN1Cc1cc2c(-c3ccc(N)cn3)ccnc2n1C` (stereo in doubt) [Example 1q8, N,N-dimethyl-4-[(2S,4R)-1-[[4-(5-amino-2-pyridyl)-1-methyl-pyrrolo[2,3-b]pyridin-2-yl]methyl]-2-methyl-4-piperidyl]benzamide], 3980 nM.

As to `CNc1ccc(-c2ccnc3c2cc(CN2CCC(c4ccc(C(=O)N(C)C)cc4)CC2=O)n3C)cn1` (stereo in doubt) [Example 1s3, N,N-Dimethyl-4-[(4R)-1-[[1-methyl-4-[6-(methylamino)-3-pyridyl]pyrrolo[2,3-b]pyridin-2-yl]methyl]-2-oxo-4-piperidyl]benzamide], the Kd is 23.2 nM.

In the case of `CNc1ccc(-c2ccnc3c2cc(CN2CCC(c4ccc(C(=O)N(C)C)cc4)CC2=O)n3C)cn1` (stereo in doubt) [Example 1s4, N,N-dimethyl-4-[(4S)-1-[[1-methyl-4-[6-(methylamino)-3-pyridyl]pyrrolo[2,3-b]pyridin-2-yl]methyl]-2-oxo-4-piperidyl]benzamide], the Kd was found to be 51.1 nM.

Turning to `CNc1ccc(-c2ccnc3c2cc(CN2CC[C@@H](c4ccc(C(=O)N(C)C)cc4)[C@@H](F)C2)n3C)cn1` (stereo in doubt) [Example 1s27, N,N-Dimethyl-4-[(3R,4S)-3-fluoro-1-[[1-methyl-4-[6-(methylamino)-3-pyridyl]pyrrolo[2,3-b]pyridin-2-yl]methyl]-4-piperidyl]benzamide], the Kd was determined as 40.6 nM. To `CN(C)C(=O)c1ccc(C2CCN(Cc3cc4c(-c5ccc(N)c(O)n5)ccnc4n3C)CC2)cc1` [Example 1ad1, 4-(1-((4-(5-Amino-6-hydroxypyridin-2-yl)-1-methyl-1H-pyrrolo[2,3-b]pyridin-2-yl)methyl)piperidin-4-yl)-N,N-dimethylbenzamide] belongs 79.4 nM; to `COc1nc(-c2ccnc3c2cc(CN2CCC(c4ccc(C(=O)N(C)C)cc4)CC2)n3C)ccc1N` [Example 1ad2, 4-(1-((4-(5-Amino-6-methoxypyridin-2-yl)-1-methyl-1H-pyrrolo[2,3-b]pyridin-2-yl)methyl)piperidin-4-yl)-N,N-dimethylbenzamide], 54 nM. Next, `CNc1ccc(-c2ccnc3c2cc(CN2CCC(c4ccc(C(=O)N(C)C)cc4)CC2)n3C(C)C)cn1` [Example 1ad3, 4-[1-[[1-iso-Propyl-4-[6-(methylamino)-3-pyridyl]pyrrolo[2,3-b]pyridin-2-yl]methyl]-4-piperidyl]-N,N-dimethyl-benzamide]: 2730 nM. Next, `CN(C)C(=O)c1ccc([C@@H]2CCN(Cc3cc4c(-c5ccc(N)nc5)ccnc4n3C)C(=O)C2)cc1` [Example 1ae4, (R)—N,N-Dimethyl-4-[1-[[4-(6-amino-3-pyridyl)-1-methyl-pyrrolo[2,3-b]pyridin-2-yl]methyl]-2-oxo-4-piperidyl]benzamide]: 24.5 nM; `CN(C)C(=O)c1ccc(N2CCN(Cc3cc4c(-c5ccc(N)nc5)ccnc4n3C)C(=O)C2)cc1` [Example 1ae7, 4-[4-[[4-(6-Amino-3-pyridyl)-1-methyl-pyrrolo[2,3-b]pyridin-2-yl]methyl]-3-oxo-piperazin-1-yl]-N,N-dimethyl-benzamide]: 67.8 nM; `[2H]C([2H])([2H])N(C(=O)c1ccc(C2CCN(Cc3cc4c(-c5ccc(N)cn5)ccnc4n3C)CC2)cc1)C([2H])([2H])[2H]` [Example 1ae10, 4-[1-[[4-(5-Amino-2-pyridyl)-1-methyl-pyrrolo[2,3-b]pyridin-2-yl]methyl]-4-piperidyl]-N,N-bis(trideuteriomethyl)benzamide]: 25.4 nM.

On to `CNC(=O)c1ccc(C2CCN(Cc3cc4c(-c5ccc(N)nc5C#N)ccnc4n3C)CC2)cc1` [Example 1ae14, 4-[1-[[4-(6-Amino-2-cyano-3-pyridyl)-1-methyl-pyrrolo[2,3-b]pyridin-2-yl]methyl]-4-piperidyl]-N-methyl-benzamide], for which the Kd was determined as 194 nM. Next, `[2H]C([2H])([2H])NC(=O)c1ccc(C2CCN(Cc3cc4c(-c5ccc(N)nc5C#N)ccnc4n3C)CC2)cc1` [Example 1ae15, 4-[1-[[4-(6-Amino-2-cyano-3-pyridyl)-1-methyl-pyrrolo[2,3-b]pyridin-2-yl]methyl]-4-piperidyl]-N-(trideuteriomethyl)benzamide]: 201 nM; `C[C@@H](c1cc2c(-c3ccc(N)nc3)ccnc2n1C)N1CCC(c2ccc(C(=O)N(C)C)cc2)CC1` [Example 1af11, (S)-4-(1-(1-(4-(6-amino-pyridin-3-yl)-1-methyl-1H-pyrrolo[2,3-b]pyridin-2-yl)ethyl)-piperidin-4-yl)-N,N-dimethyl-benzamide]: 102 nM.

For `C[C@@H](c1cc2c(-c3ccc(N)nc3C#N)ccnc2n1C)N1CCC(c2ccc(C(=O)N(C)C)cc2)CC1` [Example 1af13, (S)-4-(1-(1-(4-(6-amino-2-cyanopyridin-3-yl)-1-methyl-1H-pyrrolo[2,3-b]pyridin-2-yl)ethyl)piperidin-4-yl)-N,N-dimethylbenzamide], the Kd amounted to 691 nM. To `C[C@@H](c1cc2c(-c3ccc(N)cn3)ccnc2n1C)N1CCC(c2ccc(C(=O)N(C)C)cc2)CC1` [Example 1af15, (S)-4-(1-(1-(4-(5-amino-pyridin-2-yl)-1-methyl-1H-pyrrolo[2,3-b]pyridin-2-yl)-ethyl)piperidin-4-yl)-N,N-dimethylbenzamide] belongs 438 nM; to `C[C@H](c1cc2c(-c3ccc(N)cn3)ccnc2n1C)N1CCC(c2ccc(C(=O)N(C)C)cc2)CC1` [Example 1af16, (R)-4-(1-(1-(4-(5-aminopyridin-2-yl)-1-methyl-1H-pyrrolo[2,3-b]pyridin-2-yl)ethyl)piperidin-4-yl)-N,N-dimethylbenzamide], 15.5 nM.

For the origin of these results see US20250340551A1, “SMALL MOLECULE MODULATORS OF STAT6” (Gilead Sciences, Inc., priority 2024, published 2025).
